In patent US20240277684A1, “BLOCKADE OF CHEMOKINE (C-C MOTIF) RECEPTOR 2 DURING FLUID RESUSCITATION” (University of South Florida, priority 2022, published 2024):

Experiments:
[1] = system: hemorrhagic shock; assay: Example 2 Series 2: 60 min hemorrhagic shock, single dose, fluid resuscitation until t=300 min; type: in vivo, rat
Protocol: (§1) The hemorrhagic shock models were performed as described previously, with slight modifications (DeSantis A J, et al., The Chemokine (C-C Motif) Receptor 2 Antagonist INCB3284 Reduces Fluid Requirements and Protects From Hemodynamic Decompensation During Resuscitation From Hemorrhagic Shock. Crit Care Explor 2022;4(5):e0701; Bach H H, et al., Chemokine (C-X-C motif) receptor 4 and atypical chemokine receptor 3 regulate vascular alpha(1)-adrenergic receptor function. Mol Med 2014; 20:435-47; Nassoiy S P, et al., Effects of the Kv7 voltage activated potassium channel inhibitor linopirdine in rat models of hemorrhagic shock. Clin Exp Pharmacol Physiol 2018. doi: 10.1111/1440-1681.12958. PubMed PMID: 29702725; Bach H H, et al., Proteasome inhibition prolongs survival during lethal hemorrhagic shock in rats. J Trauma Acute Care Surg 2013; 74(2):499-507). In brief, anesthesia induction was performed with the animal and isoflurane-soaked gauze placed in a bell jar. After anesthesia induction, the animals were transferred to the operative field and anesthesia was maintained with 2.7% isoflurane administered via nose-cone inhalation with the SomnoSuite small animal anesthesia system (Kent Scientific Corporation, Torrington, CT, USA). […] Using a direct cut-down technique, the left femoral artery was isolated and cannulated with a 24-gauge peripheral intravenous catheter to allow for blood withdrawal, hemodynamic monitoring, drug administration, and fluid resuscitation. After catheter placement, isoflurane was decreased to 1.5%. Hemodynamics were continuously monitored with the Surgivet invasive blood pressure monitor (Med-Electronics, Beltsville, MD, USA). Blood pressures were recorded at 1-5 min intervals during the hemorrhage and resuscitation periods. Four subsequent series of experiments were performed. All experiments in each series were performed in alternating order. In all experiments animals were continuously monitored and remained under general anesthesia until euthanasia or death, as defined by asystole or loss of pulse pressure.
(§2) Series 2: Rats were hemorrhaged to a MAP of less than or equal to 30 mmHg for a period of 60 min, followed by fluid resuscitation until t=300 min as in Series 1. At the end of the hemorrhagic shock period (t=60 min), animals were injected with 1 mL of normal saline (NS) (n=6), 5 μmol/kg (n=6) INCB3284 in 1 mL NS or 1.1 μmol/kg SB 328437 (n=6) in 1 mL NS at t=60 min. At t=0 min, 60 min, 120 min, 180 min, 240 min and 300 min, blood samples (0.3 ml) were obtained and used for arterial blood gas analyses and measurements of routine laboratory parameters. At t=300 min, surviving animals were euthanized (5% isoflurane inhalation, bilateral pneumothorax).
(§3) Arterial blood gases and routine laboratory parameters. Arterial blood gases, electrolytes, creatinine, lactate, hematocrit and hemoglobin were analyzed using the Element point of care veterinary blood gas, electrolyte and critical care analyzer (Cuattro Veterinary USA, Loveland, CO, USA).

[2] = system: hemorrhagic shock; assay: Example 2 Series 3: 60 min hemorrhagic shock, redosing, fluid resuscitation until t=300 min; type: in vivo, rat; settings: 5 μmol/kg at t=60 min and t=200 min
Protocol: as §1
as §2, with “3:” for “2:”, “2.” for “1.”, “min) and at t=200 min,” for “min),”, “NS (n=7) or with” for “normal saline (NS) (n=6),”, “μmol/kg” for “μmol/kg (n=6)”, “(n=7).” for “or 1.1 μmol/kg SB 328437 (n=6) in 1 mL NS at t=60 min.”
as §3

[3] = target: CCR2 (Homo sapiens, UniProt P41597); settings: read-out: IC50, inhibiting monocyte chemoattractant protein-1 binding to hCCR2; cited from earlier work
CCR2, sequence (P41597 whole entry): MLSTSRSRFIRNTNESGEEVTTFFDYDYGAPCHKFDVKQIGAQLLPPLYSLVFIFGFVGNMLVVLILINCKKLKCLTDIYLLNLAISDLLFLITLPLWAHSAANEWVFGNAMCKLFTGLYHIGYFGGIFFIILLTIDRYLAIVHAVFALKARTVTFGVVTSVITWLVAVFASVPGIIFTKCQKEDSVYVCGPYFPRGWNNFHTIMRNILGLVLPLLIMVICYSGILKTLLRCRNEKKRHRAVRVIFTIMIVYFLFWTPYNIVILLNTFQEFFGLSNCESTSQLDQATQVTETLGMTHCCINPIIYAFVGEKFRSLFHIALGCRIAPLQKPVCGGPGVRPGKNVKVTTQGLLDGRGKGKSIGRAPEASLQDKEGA

COc1ccc([C@]2(O)CC[C@@H](N3CC[C@@H](NC(=O)CNC(=O)c4cccc(C(F)(F)F)c4)C3)CC2)cn1 [INCB3284]
median survival time ([1]; 1.1 μmol/kg SB328437 or 5 μmol/kg INCB3284 at t=60 min): undefined | animals that survived the resuscitation period ([1]; 1.1 μmol/kg SB328437 or 5 μmol/kg INCB3284 at t=60 min, until t=300 min, n=6): all | reduction of fluid resuscitation requirements to achieve the target MAP ([1]; 5 μmol/kg at t=60 min, until t=220 min, p<0.05 vs. vehicle): 65% | steep increase in fluid requirements [2]: prevented | reduction of total fluid requirements ([2]; at t=300 min, vs vehicle): 75% | total fluid requirements ([2]; at t=300 min, p<0.05 vs. vehicle): 33 ± 16 mL/kg | median survival time ([2]; p<0.05 vs. vehicle): undefined | mortality ([2]; p<0.05 vs. vehicle): zero | IC50 [3]: 3.7 nM
